Laboratory results as given in the NIST ThermoML archive (doi:10.1021/je600573w).

Columns and labels:
[1] = 101.33 kPa, Liquid, Vibrating tube method
[2] = molar heat capacity at constant pressure; conditions: 101.33 kPa, Liquid, Small sample (50 mg) DSC

Clc1cccc(Br)c1 [1-bromo-3-chlorobenzene]
Conditions | mass density [kg/m3] | molar heat capacity at constant pressure [J/K/mol]
[1], 288.15 K | 1638.44 | –
[1], 298.15 K | 1624.97 | –
[1], 308.15 K | 1611.51 | –
[1], 318.15 K | 1598.05 | –
[1], 328.15 K | 1584.56 | –
[1], 338.15 K | 1571.05 | –
[2], 283.15 K | – | 171.14
[2], 285.15 K | – | 171.49
[2], 287.15 K | – | 171.84
[2], 289.15 K | – | 172.21
[2], 291.15 K | – | 172.59
[2], 293.15 K | – | 172.97
[2], 295.15 K | – | 173.36
[2], 297.15 K | – | 173.75
[2], 299.15 K | – | 174.15
[2], 301.15 K | – | 174.56
[2], 303.15 K | – | 174.98
[2], 305.15 K | – | 175.4
[2], 307.15 K | – | 175.82
[2], 309.15 K | – | 176.25
[2], 311.15 K | – | 176.68
[2], 313.15 K | – | 177.12
[2], 315.15 K | – | 177.56
[2], 317.15 K | – | 178
[2], 319.15 K | – | 178.44
[2], 321.15 K | – | 178.89
[2], 323.15 K | – | 179.33
[2], 325.15 K | – | 179.78
[2], 327.15 K | – | 180.23
[2], 329.15 K | – | 180.68
[2], 331.15 K | – | 181.13
[2], 333.15 K | – | 181.58
[2], 335.15 K | – | 182.03
[2], 337.15 K | – | 182.47
[2], 339.15 K | – | 182.92
[2], 341.15 K | – | 183.36
[2], 343.15 K | – | 183.8
[2], 345.15 K | – | 184.24
[2], 347.15 K | – | 184.67
[2], 349.15 K | – | 185.1
[2], 351.15 K | – | 185.52
[2], 353.15 K | – | 185.94

Brc1ccccc1 [bromobenzene]
Conditions | mass density [kg/m3] | molar heat capacity at constant pressure [J/K/mol]
[1], 288.15 K | 1501.95 | –
[1], 298.15 K | 1488.45 | –
[1], 308.15 K | 1474.94 | –
[1], 318.15 K | 1461.39 | –
[1], 328.15 K | 1447.8 | –
[1], 338.15 K | 1434.15 | –
[2], 283.15 K | – | 151.63
[2], 285.15 K | – | 151.99
[2], 287.15 K | – | 152.37
[2], 289.15 K | – | 152.75
[2], 291.15 K | – | 153.14
[2], 293.15 K | – | 153.54
[2], 295.15 K | – | 153.94
[2], 297.15 K | – | 154.35
[2], 299.15 K | – | 154.77
[2], 301.15 K | – | 155.19
[2], 303.15 K | – | 155.62
[2], 305.15 K | – | 156.05
[2], 307.15 K | – | 156.49
[2], 309.15 K | – | 156.93
[2], 311.15 K | – | 157.38
[2], 313.15 K | – | 157.83
[2], 315.15 K | – | 158.28
[2], 317.15 K | – | 158.74
[2], 319.15 K | – | 159.2
[2], 321.15 K | – | 159.66
[2], 323.15 K | – | 160.13
[2], 325.15 K | – | 160.6
[2], 327.15 K | – | 161.06
[2], 329.15 K | – | 161.53
[2], 331.15 K | – | 162
[2], 333.15 K | – | 162.48
[2], 335.15 K | – | 162.95
[2], 337.15 K | – | 163.42
[2], 339.15 K | – | 163.89
[2], 341.15 K | – | 164.36
[2], 343.15 K | – | 164.83
[2], 345.15 K | – | 165.3
[2], 347.15 K | – | 165.76
[2], 349.15 K | – | 166.23
[2], 351.15 K | – | 166.69
[2], 353.15 K | – | 167.15

Clc1ccccc1 [chlorobenzene]
Conditions | mass density [kg/m3] | molar heat capacity at constant pressure [J/K/mol]
[1], 288.15 K | 1111.9 | –
[1], 298.15 K | 1101.14 | –
[1], 308.15 K | 1090.34 | –
[1], 318.15 K | 1079.48 | –
[1], 328.15 K | 1068.57 | –
[1], 338.15 K | 1057.58 | –
[2], 283.15 K | – | 147.73
[2], 285.15 K | – | 148.14
[2], 287.15 K | – | 148.56
[2], 289.15 K | – | 148.99
[2], 291.15 K | – | 149.41
[2], 293.15 K | – | 149.85
[2], 295.15 K | – | 150.29
[2], 297.15 K | – | 150.73
[2], 299.15 K | – | 151.18
[2], 301.15 K | – | 151.64
[2], 303.15 K | – | 152.1
[2], 305.15 K | – | 152.56
[2], 307.15 K | – | 153.03
[2], 309.15 K | – | 153.5
[2], 311.15 K | – | 153.97
[2], 313.15 K | – | 154.45
[2], 315.15 K | – | 154.93
[2], 317.15 K | – | 155.41
[2], 319.15 K | – | 155.9
[2], 321.15 K | – | 156.39
[2], 323.15 K | – | 156.88
[2], 325.15 K | – | 157.37
[2], 327.15 K | – | 157.86
[2], 329.15 K | – | 158.36
[2], 331.15 K | – | 158.86
[2], 333.15 K | – | 159.35
[2], 335.15 K | – | 159.85
[2], 337.15 K | – | 160.35
[2], 339.15 K | – | 160.85
[2], 341.15 K | – | 161.35
[2], 343.15 K | – | 161.85
[2], 345.15 K | – | 162.35
[2], 347.15 K | – | 162.85
[2], 349.15 K | – | 163.34
[2], 351.15 K | – | 163.84
[2], 353.15 K | – | 164.34
